According to patent US20250179047A1, “5-[7-(3,4-DIHYDRO-1H-ISOQUINOLINE-2-CARBONYL)-1,2,3,4 TETRAHYDROISOQUINOLIN-6-YL]-1H-PYRROLE-3-CARBOXAMIDE DERIVATIVES, PHARMACEUTICAL COMPOSITIONS CONTAINING THEM AND THEIR USES AS PRO-APOPTOTIC AGENTS” (LES LABORATOIRES SERVIER, priority 2022, published 2025):

Columns and labels:
[1] = molecular target: BCLXL WT (Homo sapiens (Human), UniProt Q07817); test: TR-FRET competitive binding assay, BCLXL WT; settings: for Ki: BCLXL WT, Ki determined from IC50, read-out: TR_FRET EKI BclxL; for TR_FRET EKI BCLxL/WT selectivty ratio: ratio Ki BCLxL / Ki BCL2 WT
BCLXL WT, sequence (Q07817 other isoform, or with tags, fused parts or gaps): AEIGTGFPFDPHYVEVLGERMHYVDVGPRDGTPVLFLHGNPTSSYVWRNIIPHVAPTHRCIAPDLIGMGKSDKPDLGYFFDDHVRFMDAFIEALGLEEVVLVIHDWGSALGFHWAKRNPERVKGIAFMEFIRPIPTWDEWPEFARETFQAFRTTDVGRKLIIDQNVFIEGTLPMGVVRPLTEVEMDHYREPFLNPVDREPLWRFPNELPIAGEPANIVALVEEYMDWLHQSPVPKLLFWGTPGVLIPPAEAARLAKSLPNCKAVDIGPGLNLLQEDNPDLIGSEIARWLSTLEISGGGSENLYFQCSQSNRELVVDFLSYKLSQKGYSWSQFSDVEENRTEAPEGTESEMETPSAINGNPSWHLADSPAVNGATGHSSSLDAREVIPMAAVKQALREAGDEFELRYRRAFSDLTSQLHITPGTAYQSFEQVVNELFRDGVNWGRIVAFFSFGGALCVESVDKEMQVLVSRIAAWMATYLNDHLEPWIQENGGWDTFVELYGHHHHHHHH
Method in brief: (§1)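 Competitive TR-FRET displacement of fluorescein-PUMA peptide (2 or 20 nM) from 0.5 nM terbium-labelled N-terminal Halo-fusion BCL2 (1-207, wild type or mutant) or BCLXL (2-196), expressed in E. coli. Buffer 50 mM Hepes pH 7.5, 150 mM NaCl, 5% DMSO; 2 h at 23°C. 520/495 nm ratio fitted over 11 points for IC50, converted to Ki.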

[2] = system: BCL2 G101V; test: TR-FRET competitive binding assay, BCL2 G101V; parameters: species or system human; settings: ratio Ki BCL2 G101V / Ki BCL2 WT
Method in brief: as §1

[3] = molecular target: BCL2 G101V (Homo sapiens, UniProt P10415, G101V); test: TR-FRET competitive binding assay, BCL2 G101V; settings: BCL2 G101V; Ki determined from IC50; read-out: TR_FRET EKI_Bcl2 G101V
Method in brief: as §1

[4] = system: KMS-12-PE Bcl-2 WT; test: In vitro cytotoxicity CellTiter-Glo 48 h, KMS-12-PE Bcl-2 WT; format: cell-based; settings: C50 = concentration needed to reach 50% of the cellular viability
Method in brief: (§2)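 KMS-12-PE myeloma cells lentivirally transduced with Bcl-2 WT or G101V (TagRFP-sorted), exposed to compound 11-point dose-response for 48 h at 37 °C, 5% CO2. Viability read by CellTiter-Glo ATP luminescence; C50 is the concentration giving 50% cellular viability.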

[5] = molecular target: BCL2 D103Y (Homo sapiens, UniProt P10415, D103Y); test: TR-FRET competitive binding assay, BCL2 D103Y; settings: Ki determined from IC50, read-out: TR_FRET EKI_Bcl2 D103Y
Method in brief: as §1

[6] = molecular target: BCL2 D111A (Homo sapiens, UniProt P10415, D111A); test: TR-FRET competitive binding assay, BCL2 D111A; settings: Ki determined from IC50, read-out: TR_FRET EKI_Bcl2 D111A
Experimental: (§3) The relative binding potency of each compound was determined in a competitive binding assay using time resolved-fluorescence resonance energy transfer (TR-FRET). The method utilised a fluorescein labelled peptide derived from PUMA (5Flu-Ahx-[…]-NH2 wherein Ahx means 6-hexanoic acid monomer and the amino acid sequence is referred to as SEQ ID:01) which binds to a terbium labelled BCL2 or BCLXL protein. The degree of binding or corresponding compound inhibition can be quantified by the TR-FRET signal between the terbium donor and fluorescein acceptor.
(§4) The human BCL2_wild-type (also named BCL2_wt), BCL2_G101V mutant and BCLXL_wild-type were E. coli expressed as a N-terminal Halo-fusion proteins and singly labelled with Terbium on the Halo protein to afford the following amino acid sequences:
(§5) wherein the BCL2(1-207) sequence corresponds to UniProtKB® primary accession number P10415 and the BCLXL(2-196) sequence corresponds to UniProtKB® primary accession number Q07817-1.
(§6) The assay was performed in a 40 μL volume in white 384-standard well plates (Corning #3574). An 11-point serial dilution of each compound was prepared in DMSO and transferred directly to plate followed by addition of fluorescein labelled peptide and lastly protein. Final assay conditions were 0.5 nM BCL2_wt, BCL2_G101V, BCL2_D103Y, BCL2_F104I, BCL2_D111A or BCLXL_wt, 2 or 20 nM fluorescein labelled peptide, 50 mM Hepes pH 7.5, 150 mM NaCl, 0.5 mM TCEP (Tris(2-carboxyethyl)phosphine), 0.05% Tween 20, 5% DMSO. The mixture was incubated for 2 hours at 23° C.
(§7) TR-FRET measurements were performed on a Biotek Synergy Neo plate reader. TR-FRET was measured by excitation of the Terbium-donor at 340 nm and subsequent (delay time 100 μs) measurement of terbium and fluorescein emission at 495 nm and 520 nm, respectively, over a collection time of 300 μs. The TR-FRET signal was calculated as the emission-ratio at 520 nm over 495 nm.
(§8) The TR-FRET ratio readout for test compounds was normalized against 0% inhibition controls wells and 100% inhibition control wells. Test compound potency (IC50) was estimated by nonlinear regression using the sigmoidal dose-response (variable slope) using Xlfit 4 (IDBS, Guildford, Surrey, UK, model 205). Were the IC50 could not be determined the % inhibition at the highest tested concentration is given.
(§9) y=(A+((B−A)/(1+((C/x)^D))))
(§10) where y is the normalized TR-TRET ratio measurement for a given concentration of test compound, x is the concentration of test compound, A is the estimated efficacy (% inhibition) at infinite compound dilution, and B is the maximal efficacy (% inhibition). C is the IC50 value and D is the Hill slope coefficient.
(§11) The K1 values were determined from the IC50 values according to Cer et al, Nucleic Acids Res, 2009, July 1; 37 (WebServer issue): W441-W445.

[7] = molecular target: BCL2 WT (Homo sapiens (Human), UniProt P10415); test: TR-FRET competitive binding assay, BCL2 WT; settings: Ki determined from IC50, read-out: TR_FRET EKI_Bcl2 WT
Method in brief: as §1

[8] = system: KMS-12-PE Bcl-2 G101V; test: In vitro cytotoxicity CellTiter-Glo 48 h, KMS-12-PE Bcl-2 G101V; format: cell-based; settings: for Ratio (G101V/WT): C50 KMS-12-PE Bcl-2 G101V over C50 KMS-12-PE Bcl-2 WT; for IC50: 48 h, CellTiter-Glo, C50 = concentration needed to reach 50% of the cellular viability
Method in brief: as §2

[9] = molecular target: BCL2 F104I (Homo sapiens, UniProt P10415, F104I); test: TR-FRET competitive binding assay, BCL2 F104I; settings: Ki determined from IC50, read-out: TR_FRET EKI_Bcl2 F104I
Experimental: as §3, §4, §5, §6, §7, §8, §9, §10, §11

| SMILES | Ki [1] | TR_FRET EKI BCLxL/WT selectivty ratio [1] | TR_FRET EKI G101V/WT selectivty ratio [2] | Ki [3] | Ki [5] | Ki [6] | Ki [7] | Ki [9] | IC50 ([4]; Homo sapiens, KMS-12-PE) | Ratio (G101V/WT) [8] | IC50 ([8]; Homo sapiens, KMS-12-PE) | IC50 [4] | IC50 [8] |
| --- | --- | --- | --- | --- | --- | --- | --- | --- | --- | --- | --- | --- | --- |
| Cc1c(N(C(=O)c2cc(-c3cc4c(cc3C(=O)N3Cc5ccccc5C[C@H]3C)CN(C(=O)C(F)(F)c3ccccc3)CC4)n(C)c2C)c2ccc(O)cc2)cc(C#N)n1C [Example 18, N-(5-cyano-1,2-dimethylpyrrol-3-yl)-5-[2-(2,2-difluoro-2-phenylacetyl)-7-{[(3R)-3-methyl-3,4-dihydro-1H-isoquinolin-2-yl]carbonyl}-3,4-dihydro-1H-isoquinolin-6-yl]-N-(4-hydroxyphenyl)-1,2-dimethylpyrrole-3-carboxamide] | 30.2 nM | 100.7 | 14.0 | 4.2 nM | 1.23 nM | 2.65 nM | 0.3 nM | 53.5 nM | 0.0055 µM | 8.67 | 0.0477 µM | – | – |
| Cc1c(N(C(=O)c2cc(-c3cc4c(cc3C(=O)N3Cc5ccccc5C[C@H]3C)CN(C(=O)C3CCN(c5ccccc5)C3=O)CC4)n(C)c2C)c2ccc(O)cc2)cc(C#N)n1C (some centres unmarked) [Example 29] | 13.1 nM | 19.6 | 10.3 | 6.9 nM | 0.98 nM | 1.29 nM | 0.67 nM | 78 nM | – | 3.62 | – | 0.0164 µM | 0.0594 µM |
| Cc1c(N(C(=O)c2cc(-c3cc4c(cc3C(=O)N3Cc5ccccc5C[C@H]3C)CN(C(=O)Cc3ccc(OCCN5CCC(O)CC5)cc3)CC4)n(C)c2C)c2ccc(O)cc2)cc(C#N)n1C [Example 30, N-(5-cyano-1,2-dimethyl-1H-pyrrol-3-yl)-N-(4-hydroxyphenyl)-5-[2-(2-{4-[2-(4-hydroxypiperidin-1-yl)ethoxy]phenyl}acetyl)-7-[(3R)-3-methyl-1,2,3,4-tetrahydroisoquinoline-2-carbonyl]-1,2,3,4-tetrahydroisoquinolin-6-yl]-1,2-dimethyl-1H-pyrrole-3-carboxamide] | 1.1 nM | 11.6 | 1.9 | 0.2 nM | 0.19 nM | 0.12 nM | 0.1 nM | 0.26 nM | 0.0191 µM | 4.76 | 0.0909 µM | – | – |
| Cc1c(N(C(=O)c2cc(-c3cc4c(cc3C(=O)N3Cc5ccccc5C[C@H]3C)CN(C(=O)Cc3ccc(OCCN5CCN(C6CC6)CC5)cc3)CC4)n(C)c2C)c2ccc(O)cc2)cc(C#N)n1C [Example 31, N-(5-cyano-1,2-dimethyl-1H-pyrrol-3-yl)-5-[2-(2-{4-[2-(4-cyclopropylpiperazin-1-yl)ethoxy]phenyl}acetyl)-7-[(3R)-3-methyl-1,2,3,4-tetrahydroisoquinoline-2-carbonyl]-1,2,3,4-tetrahydroisoquinolin-6-yl]-N-(4-hydroxyphenyl)-1,2-dimethyl-1H-pyrrole-3-carboxamide] | 1.3 nM | 11.8 | 2.6 | 0.3 nM | 0.4 nM | 0.26 nM | 0.11 nM | 0.52 nM | 0.0077 µM | 4.05 | 0.0312 µM | – | – |
| Cc1c(N(C(=O)c2cc(-c3cc4c(cc3C(=O)N3Cc5ccccc5C[C@H]3C)CN(C(=O)Cc3ccc(OCCN5CCN6CCOC[C@@H]6C5)cc3)CC4)n(C)c2C)c2ccc(O)cc2)cc(C#N)n1C [Example 36, 5-{2-[2-(4-{2-[(9aS)-octahydropyrazino[2,1-c][1,4]oxazin-8-yl]ethoxy}phenyl)acetyl]-7-[(3R)-3-methyl-1,2,3,4-tetrahydroisoquinoline-2-carbonyl]-1,2,3,4-tetrahydroisoquinolin-6-yl}-N-(5-cyano-1,2-dimethyl-1H-pyrrol-3-yl)-N-(4-hydroxyphenyl)-1,2-dimethyl-1H-pyrrole-3-carboxamide] | 1.4 nM | 12.7 | 2.5 | 0.3 nM | 0.33 nM | 0.06 nM | 0.11 nM | 0.16 nM | 0.0103 µM | 3.75 | 0.0386 µM | – | – |

Second part, led by results:

| Ki [1] | TR_FRET EKI BCLxL/WT selectivty ratio [1] | TR_FRET EKI G101V/WT selectivty ratio [2] | Ki [3] | Ki [5] | Ki [6] | Ki [7] | Ki [9] | SMILES | IC50 ([4]; Homo sapiens, KMS-12-PE) | Ratio (G101V/WT) [8] | IC50 ([8]; Homo sapiens, KMS-12-PE) | IC50 [4] | IC50 [8] |
| --- | --- | --- | --- | --- | --- | --- | --- | --- | --- | --- | --- | --- | --- |
| 9.6 nM | 14.8 | 6.2 | 4 nM | 4.1 nM | 3.34 nM | 0.65 nM | 33.9 nM | Cc1c(N(C(=O)c2cc(-c3cc4c(cc3C(=O)N3Cc5ccccc5C[C@H]3C)CN(C(=O)c3cnc(-c5ccccc5)s3)CC4)n(C)c2C)c2ccc(O)cc2)cc(C#N)n1C [Example 17, N-(5-cyano-1,2-dimethyl-1H-pyrrol-3-yl)-N-(4-hydroxyphenyl)-1,2-dimethyl-5-{7-[(3R)-3-methyl-1,2,3,4-tetrahydroisoquinoline-2-carbonyl]-2-(2-phenyl-1,3-thiazole-5-carbonyl)-1,2,3,4-tetrahydroisoquinolin-6-yl}-1H-pyrrole-3-carboxamide] | 0.0032 µM | 4.51 | 0.0144 µM | – | – |
| 2.6 nM | 10.0 | 2.6 | 0.7 nM | 1.35 nM | 0.27 nM | 0.26 nM | 0.77 nM | Cc1c(N(C(=O)c2cc(-c3cc4c(cc3C(=O)N3Cc5ccccc5C[C@H]3C)CN(C(=O)Cc3ccc(OCCN(C)C5CC5)cc3)CC4)n3c2CCCC3)c2ccc(O)cc2)cc(C#N)n1C [Example 35, N-(5-cyano-1,2-dimethyl-pyrrol-3-yl)-3-[2-[2-[4-[2-[cyclopropyl(methyl)amino]ethoxy]phenyl]acetyl]-7-[(3R)-3-methyl-3,4-dihydro-1H-isoquinoline-2-carbonyl]-3,4-dihydro-1H-isoquinolin-6-yl]-N-(4-hydroxyphenyl)-5,6,7,8-tetrahydroindolizine-1-carboxamide] | 0.0068 µM | 3.75 | 0.0254 µM | – | – |
